Assay results taken from US20240254115A1 (ACONDICIONAMIENTO TARRASENSE, priority 2021, published 2024).
pKi: −log10 of the molar value.

Assays:
human σ2/TMEM97 receptor = biological target: T1, human σ2/TMEM97 receptor (Homo sapiens, UniProt Q5BJF2); experiment: Binding assay to human σ2/TMEM97 receptor; details: transfected HEK-293 membranes, 10 nM [3H]-DTG, 25° C. 120 minutes; + may also stand for 1-50% inhibition at 1 or 10 μM; read-out: Binding σ-2 Ki
T1 construct: expressed in transfected cells; host or cells: HEK-293
T1 sequence (Q5BJF2 whole entry): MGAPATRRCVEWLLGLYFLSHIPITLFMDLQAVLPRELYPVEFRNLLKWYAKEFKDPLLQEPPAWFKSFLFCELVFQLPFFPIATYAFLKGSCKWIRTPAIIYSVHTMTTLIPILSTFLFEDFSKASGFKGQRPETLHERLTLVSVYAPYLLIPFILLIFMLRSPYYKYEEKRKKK
Method in brief: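 Membranes from transfected HEK-293 cells (15 µg) were incubated with 10 nM [3H]-DTG in 50 mM Tris-HCl pH 8.0 for 120 min at 25 °C, with 10 µM haloperidol defining non-specific binding. Filtration and scintillation counting followed. Compounds tested as % inhibition at 1 or 10 µM, or at five concentrations for Ki.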

human σ1 receptor = biological target: T2, human σ1 receptor (Homo sapiens, UniProt Q99720); experiment: Human σ1 receptor radioligand assay; details: transfected HEK-293 membranes, 5 nM [3H](+)-pentazocine, 37° C. 120 minutes; + may also stand for 1-50% inhibition at 1 or 10 μM; read-out: Binding σ-1 Ki
T2 construct: expressed in transfected cells; host or cells: HEK-293
T2 sequence (Q99720 whole entry): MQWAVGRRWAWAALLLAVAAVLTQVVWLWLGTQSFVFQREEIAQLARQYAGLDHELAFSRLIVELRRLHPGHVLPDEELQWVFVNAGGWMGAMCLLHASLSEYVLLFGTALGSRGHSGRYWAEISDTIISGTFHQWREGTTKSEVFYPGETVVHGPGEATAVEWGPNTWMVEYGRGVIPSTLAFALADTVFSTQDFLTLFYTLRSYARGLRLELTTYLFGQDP
Method in brief: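 Membranes (7 μg) were incubated with 5 nM [3H](+)-pentazocine in 50 mM Tris-HCl pH 8 for 120 min at 37° C. Non-specific binding was defined with 10 μM haloperidol. Values are % inhibition at 1 or 10 μM or Ki from five concentrations, read by filtration and scintillation counting.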

Row | pKi (human σ2/TMEM97 receptor) | pKi (human σ1 receptor) | SMILES
1 | < 6.00 | > 7.00 | O=S(=O)(N[C@@H]1CCN(Cc2ccc(F)cc2)C1)c1ccc(N2CCOCC2)nc1 [Example 36, (R)-N-(1-(4-Fluorobenzyl)pyrrolidin-3-yl)-6-morpholinopyridine-3-sulfonamide]
2 | > 7.00 | < 6.00 | CN(Cc1ccc(F)cc1)[C@H]1CC[C@H](NS(=O)(=O)c2ccc(N3CCOCC3)cn2)CC1 [Example 119, N-((1r,4r)-4-((4-Fluoro-benzyl)(methyl)amino)cyclo-hexyl)-5-morpholinopyridine-2-sulfonamide]
3 | > 7.00 | > 7.00 | CCc1ccc(S(=O)(=O)N2CCCC3(CCN(CCC(C)(C)C)CC3)C2)cn1 [Example 111, 9-(3,3-Dimethylbutyl)-2-((6-ethylpyridin-3-yl)sulfonyl)-2,9-diazaspiro[5.5]undecane]
4 | 6.30 to 7.00 | < 6.00 | O=S(=O)(c1ccc(N2CCOCC2)nc1)N1CCC2(CC1)CN(Cc1ccccc1)C2 [Example 47, 4-(5-((2-Benzyl-2,7-diazaspiro[3.5]nonan-7-yl)sulfonyl)pyridin-2-yl)morpholine]
5 | > 7.00 | < 6.00 | CN(Cc1cccc(F)c1)[C@H]1CC[C@H](NS(=O)(=O)c2ccc(N3CCOCC3)nc2)CC1 [Example 57, N-((1r,4r)-4-((3-Fluorobenzyl) (methyl)amino)cyclo-hexyl)-6-morpholinopyridine-3-sulfonamide]
6 | > 7.00 | 6.30 to 7.00 | CC(=O)N(C)c1ccc(S(=O)(=O)N2CCC3(CCN(CCC(C)(C)C)CC3)CC2)cn1 [Example 103, N-(5-((9-(3,3-Dimethylbutyl)-3,9-diazaspiro[5.5]undecan-3-yl)sulfonyl)pyridin-2-yl)-N-methylacetamide]
7 | < 6.00 | 6.30 to 7.00 | CN(CC(C)(C)C)C1CCN(S(=O)(=O)c2ccc(N3CCOC3=O)nc2)CC1 [Example 124, 3-(5-((4-(Methyl(neopentyl)amino)pi-peridin-1-yl)sulfonyl)pyridin-2-yl)oxazolidin-2-one]
8 | > 7.00 | 6.30 to 7.00 | O=S(=O)(c1ccc(N2CCOCC2)nc1)N1CCCC2(CCN(Cc3ccncc3)CC2)C1 [Example 63, 4-(5-((9-(Pyridin-4-ylmethyl)-2,9-diazaspiro[5.5]undecan-2-yl)sulfonyl)pyridin-2-yl)morpholine]
9 | > 7.00 | > 7.00 | Cc1ccc(S(=O)(=O)N2CCCC3(CCN(CCC(C)(C)C)CC3)C2)cn1 [Example 108, 9-(3,3-Dimethylbutyl)-2-((6-methylpyridin-3-yl)sulfonyl)-2,9-diazaspiro[5.5]undecane]
10 | 6.00 to 6.30 | < 6.00 | CN(CC(C)(C)C)[C@H]1CC[C@H](NS(=O)(=O)c2ccc(N3CCC4(CCOC4)CC3)nc2)CC1 [Example 182, N-((1r,4r)-4-(Methyl(neopentyl)a-mino)cyclohexyl)-6-(2-oxa-8-azaspiro[4.5]decan-8-yl)pyridine-3-sulfonamide]
11 | > 7.00 | > 7.00 | CC(C)(C)CCN1CCCC2(CCN(S(=O)(=O)c3ccc(N4CCOC4=O)nc3)CC2)C1 [Example 137, 3-(5-((2-(3,3-Dimethylbutyl)-2,9-diazaspiro[5.5]undecan-9-yl)sulfonyl)pyridin-2-yl)oxazolidin-2-one]
12 | < 6.00 | > 7.00 | O=S(=O)(N[C@@H]1CCN(Cc2ccccc2)C1)c1ccc(N2C[C@@H]3C[C@H]2CO3)nc1 [Example 23, N-((R)-1-Benzylpyrrolidin-3-yl)-6-((1S,4S)-2-oxa-5-azabicyclo[2.2.1]heptan-5-yl)pyridine-3-sulfonamide]
13 | < 6.00 | > 7.00 | CN(C)c1ccc(S(=O)(=O)N[C@@H]2CCN(Cc3ccccc3)C2)cn1 [Example 22, (R)-N-(1-Benzylpyrrolidin-3-yl)-6-(dimethylamino) pyridine-3-sulfonamide]
14 | 6.30 to 7.00 | < 6.00 | N#Cc1cc(CN[C@H]2CC[C@H](NS(=O)(=O)c3ccc(N4CCOCC4)nc3)CC2)ccc1F [Example 52, N-((1r,4r)-4-((3-Cyano-4-fluorobenzyl)amino)cyclohexyl)-6-morpholinopyridine-3-sulfonamide]

The next lines start with the molecule.

Row | SMILES | pKi (human σ2/TMEM97 receptor) | pKi (human σ1 receptor)
15 | CN(Cc1ccccc1)C1CCN(S(=O)(=O)c2ccc(N3CCOC3=O)nc2)CC1 [Example 142, 3-(5-((4-(Benzyl(methyl)ami-no)piperidin-1-yl)sulfonyl)pyridin-2-yl)oxazolidin-2-one] | > 7.00 | 6.30 to 7.00
16 | O=S(=O)(NC1CCN(Cc2cccc(F)c2)CC1)c1ccc(N2CCOCC2)nc1 [Example 8, N-(1-(3-Fluorobenzyl)piperidin-4-yl)-6-morpholinopyridine-3-sulfonamide] | < 6.00 | > 7.00
17 | O=S(=O)(N[C@H]1CC[C@H](NCc2cccc(F)c2)CC1)c1ccc(N2CCOCC2)nc1 [Example 54, N-((1r,4r)-4-((3-Fluorobenzyl)amino)cyclohexyl)-6-morpholinopyridine-3-sulfonamide] | 6.30 to 7.00 | 6.30 to 7.00
18 | CN(Cc1ccc(C#N)cc1F)C1CCN(S(=O)(=O)c2ccc(N3CCC(F)(F)CC3)nc2)CC1 [Example 171, 4-(((1-((6-(4,4-Difluoropiperidin-1-yl)pyridin-3-yl)sulfonyl)piperidin-4-yl)(methyl)amino)methyl)-3-fluorobenzonitrile] | > 7.00 | < 6.00
19 | CN(CC1CCOCC1)C1CCN(S(=O)(=O)c2ccc(N3CCOC3=O)nc2)CC1 [Example 129, 3-(5-((4-(Methyl((tetrahydro-2H-pyran-4-yl)methyl)amino)piperidin-1-yl)sulfonyl)pyridin-2-yl)oxazolidin-2-one] | 6.30 to 7.00 | 6.30 to 7.00
20 | CC(C)(C)CCN1CCCC2(CCN(S(=O)(=O)c3ccc(N4CCC5(CCCO5)CC4)nc3)CC2)C1 [Example 78, 8-(5-((2-(3,3-Dimethylbutyl)-2,9-diazaspiro[5.5]undecan-9-yl)sulfonyl)pyridin-2-yl)-1-oxa-8-azaspiro[4.5]decane] | > 7.00 | > 7.00
21 | CN(Cc1ccc(C#N)c(F)c1)C1CCN(S(=O)(=O)c2ccc(N3CCC(F)(F)CC3)nc2)CC1 [Example 173, 4-(((1-((6-(4,4-Difluoropiperidin-1-yl)pyridin-3-yl)sulfonyl)piperidin-4-yl)(methyl)amino)methyl)-2-fluorobenzonitrile] | > 7.00 | < 6.00
22 | C[C@@H]1CN(Cc2ccccc2)C[C@H]1NS(=O)(=O)c1ccc(N2CCOCC2)nc1 [Example 14, N-((3S,4R)-1-Benzyl-4-methylpyrrolidin-3-yl)-6-morpholinopyridine-3-sulfonamide] | < 6.00 | > 7.00
23 | CN(CCC(C)(C)C)[C@H]1CC[C@H](NS(=O)(=O)c2ccc(N3CCC4(CCOC4)CC3)nc2)CC1 [Example 181, N-((1r,4r)-4-((3,3-Dimethylbut-yl)(methyl)amino)cyclohexyl)-6-(2-oxa-8-azaspiro[4.5]decan-8-yl)pyridine-3-sulfonamide] | > 7.00 | 6.00 to 6.30
24 | CC(C)(C)CCN1CCC2(CC1)CCN(S(=O)(=O)c1ccc(C(F)(F)F)nc1)C2 [Example 67, 8-(3,3-Dimethylbutyl)-2-((6-(trifluoromethyl)pyridin-3-yl)sulfonyl)-2,8-diazaspiro[4.5]decane] | > 7.00 | > 7.00
25 | O=S(=O)(c1ccc(N2CCC(F)(F)CC2)nc1)N1CCC2(CCCN(CC3CCOCC3)C2)CC1 [Example 84, 9-((6-(4,4-Difluoropiperidin-1-yl)pyridin-3-yl)sulfonyl)-2-((tetrahydro-2H-pyran-4-yl)methyl)-2,9-diazaspiro[5.5]undecane] | 6.30 to 7.00 | > 7.00
26 | CN(Cc1ccccc1)[C@H]1CC[C@H](NS(=O)(=O)c2ccc(N3CCOCC3)nc2)CC1 [Example 18, N-((1r,4r)-4-(Benzyl(methyl)amino)cyclohexyl)-6-morpholinopyridine-3-sulfonamide] | > 7.00 | < 6.00
27 | COC1CCN(c2ccc(S(=O)(=O)N[C@@H]3CCN(Cc4ccccc4)C3)cn2)CC1 [Example 26, (R)-N-(1-Benzylpyrrolidin-3-yl)-6-(4-methoxypiperidin-1-yl)pyridine-3-sulfonamide] | < 6.00 | 6.00 to 6.30
28 | N#Cc1cc(CN2CCC3(CC2)CCN(S(=O)(=O)c2ccc(N4CCOC4=O)nc2)CC3)ccc1F [Example 157, 2-Fluoro-5-((9-((6-(2-oxooxazolidin-3-yl)pyridin-3-yl)sulfonyl)-3,9-diazaspiro[5.5]undecan-3-yl)methyl)benzonitrile] | > 7.00 | < 6.00
29 | CN(CC1CCOCC1)[C@H]1CC[C@H](NS(=O)(=O)c2ccc(N3CCC4(CCCO4)CC3)nc2)CC1 [Example 177, N-((1r,4r)-4-(Methyl((tetrahydro-2H-pyran-4-yl)methyl)amino)cyclohexyl)-6-(1-oxa-8-azaspiro[4.5]decan-8-yl)pyridine-3-sulfonamide] | > 7.00 | < 6.00
30 | CN(Cc1ccccc1)[C@H]1CCN(S(=O)(=O)c2ccc(N3CCOCC3)nc2)C1 [Example 17, (S)-N-Benzyl-N-methyl-1-((6-morpholinopyridin-3-yl)sulfonyl)pyrrolidin-3-amine] | < 6.00 | > 7.00
31 | CC(C)(C)CCN1CCCC2(CCN(S(=O)(=O)c3ccc(N4CCC(F)(F)CC4)nc3)CC2)C1 [Example 76, 9-((6-(4,4-Difluoropiperidin-1-yl)pyridin-3-yl)sulfonyl)-2-(3,3-dimethylbutyl)-2,9-diazaspiro[5.5]undecane] | > 7.00 | > 7.00
